One may read the Ki as the equilibrium dissociation constant of an inhibitor or competing ligand from its target.

Each structure is given as a SMILES string.

This is an account of results in patent US5034391A, “Piperazinylalkyl-3(2H)-pyridazinones and the use thereof as agents lowering blood pressure” (CL Pharma Aktiengesellschaft, priority 1988, dated 1991).

A short description of series [1]: Solubility of the isolated salt in water (remark in the preparation examples). It counts as physicochemical. The following applies: hydrochloride / dihydrochloride salt.
Another series addresses T1, alpha1 adrenoceptors (Rattus norvegicus, UniProt P15823).
T1 construct: from tissue; host or cells: rat cardiac membranes
T1 sequence (P15823 1-515): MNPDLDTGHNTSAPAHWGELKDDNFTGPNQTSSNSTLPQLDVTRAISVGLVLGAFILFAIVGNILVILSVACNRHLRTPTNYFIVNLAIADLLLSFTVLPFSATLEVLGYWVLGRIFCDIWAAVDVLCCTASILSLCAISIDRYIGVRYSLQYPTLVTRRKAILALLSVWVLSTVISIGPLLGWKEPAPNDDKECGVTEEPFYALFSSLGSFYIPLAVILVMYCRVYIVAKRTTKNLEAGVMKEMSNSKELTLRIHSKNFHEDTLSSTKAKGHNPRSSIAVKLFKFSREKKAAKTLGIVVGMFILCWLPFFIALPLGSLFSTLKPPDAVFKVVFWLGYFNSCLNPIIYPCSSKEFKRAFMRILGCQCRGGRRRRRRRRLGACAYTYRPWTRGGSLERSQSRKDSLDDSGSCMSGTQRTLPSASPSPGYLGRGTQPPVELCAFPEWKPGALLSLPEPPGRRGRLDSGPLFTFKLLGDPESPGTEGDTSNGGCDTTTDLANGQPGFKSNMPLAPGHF
Kind of series: Affinity for alpha1 adrenoceptors: displacement of tritiated prazosin on rat cardiac membranes. It counts as binding. The following applies: Ki from IC50 by Cheng and Prusoff, read-out: Inhibition constants at alpha-1-adrenoceptor (Ki). On the procedure: The affinity of compounds of the general formula I for alpha1 adrenoceptors was established using the method described by R. S. Williams, D. F. Dukes and […] in J. Cardiovasc. Pharmacol. 3, 522-531 (1981). In this method the competitive displacement of tritiated prazosin (2-(4-(2-furoyl)-1-piperazinyl)-4-amino-6,7-dimethoxy-quinazoline) on rat-cardiac membranes by the test substances is measured, and the IC50 (50% inhibition concentration) is determined as that concentration which brings about a 50% inhibition of the specific binding of tritiated prazosin to the alpha1 adrenoceptors in rat cardiac membranes.
The concentration-independent inhibitor constants K1 -alpha1 were determined from the IC50 values as stated by Y. Cheng and H. W.Prusoff in Biochem. Pharmacol. 22, 3099-3108 (1973).

For the next series, the target named is T2, 5-HT-1A receptors (Rattus norvegicus, UniProt P19327).
T2 construct: 5-HT-1A receptors in rat brain membranes; from tissue; host or cells: rat brain membranes
T2 sequence (P19327 1-422): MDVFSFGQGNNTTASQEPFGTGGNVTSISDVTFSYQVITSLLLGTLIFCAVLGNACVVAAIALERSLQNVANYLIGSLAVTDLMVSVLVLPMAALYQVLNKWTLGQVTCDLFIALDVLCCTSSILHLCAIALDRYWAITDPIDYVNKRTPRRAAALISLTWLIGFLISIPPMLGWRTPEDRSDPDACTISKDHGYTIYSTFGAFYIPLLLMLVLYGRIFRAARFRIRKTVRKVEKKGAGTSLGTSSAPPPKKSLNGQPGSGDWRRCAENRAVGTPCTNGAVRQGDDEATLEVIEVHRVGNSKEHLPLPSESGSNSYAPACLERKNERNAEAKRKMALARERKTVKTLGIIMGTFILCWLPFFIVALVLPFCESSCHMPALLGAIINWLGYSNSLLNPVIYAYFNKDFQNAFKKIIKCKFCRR
Kind of series: Affinity for 5-HT-1A receptors: displacement of tritiated 8-OH-DPAT on rat brain membranes. The conditions noted are these: Ki from IC50 by Cheng and Prusoff, read-out: Inhibition constants at 5-HT1A-receptor (Ki). It counts as binding. As for the experimental part: The affinity of compounds of the general formula I for 5-HT-1A receptors was determined by the method described by H. Gozlan, S. Elmestikawy, L. Pichat, J. Glowinski and M. Hamon in Nature 305, 140-142 (1983). In this method the competitive displacement of tritiated 8-OH-DPAT (8-hydroxy-(di-n-propylamino)tetralin) on rat brain membranes by the test substances is measured, and the IC50 (50% inhibition concentration) is determined as that concentration which brings about a 50% inhibition of the specific binding of tritiated 8-OH-DPAT to 5-HT-1A receptors in rat brain membranes.
The concentration-independent inhibitor constants K1 -alpha1 and K1 -5HT-1A were determined from the IC50 values as stated by Y. Cheng and H. W. Prusoff in Biochem. Pharmacol. 22, 3099-3108 (1973).

As for `CC(C)(C)n1ncc(NCCN2CCN(c3cccc(C(F)(F)F)c3)CC2)c(Cl)c1=O`, in series [1], the solubility in water result is recorded as “readily soluble in water”.
As to `Cn1ncc(Cl)c(NCCN2CCN(c3ccccc3F)CC2)c1=O` [2-Methyl-5-chloro-4-((2-(4-(2-fluorophenyl)piperazinyl-1)ethyl)amino-3(2H)-pyridazinone], the Ki stood at 2.51 nM at alpha1 adrenoceptors and 80.8 nM on 5-HT-1A receptors.
On to `COc1ccccc1N1CCN(CCNc2c(Cl)cnn(CCO)c2=O)CC1` [2-Hydroxyethyl-5-chloro-4-((2-(4-(2-methoxyphenyl)piperazinyl-1)ethyl)amino)-3(2H)-pyridazinone], for which the values for the Ki at alpha1 adrenoceptors and on 5-HT-1A receptors were 2.42 nM and 25.6 nM, respectively.
Turning to `CCOc1ccccc1N1CCN(CCNc2cnn(C)c(=O)c2Cl)CC1` [2-Methyl-4-chloro-5-((2-(4-(2-ethoxyphenyl)piperazinyl-1)ethyl)amino)-3(2H)-pyridazinone], the Ki at alpha1 adrenoceptors came to 7.59 nM; on 5-HT-1A receptors, 36.8 nM.
The matching figures for `COc1cc(C)ccc1N1CCN(CCNc2cnn(C)c(=O)c2)CC1` [2-Methyl-5-((2-(4-(2-methoxy-4-methylphenyl)piperazinyl-1)ethyl)amino)-3(2H)-pyridazinone]: 207 nM and 814 nM.
On to `COc1cc(C)ccc1N1CCN(CCNc2cnn(C)c(=O)c2Cl)CC1` [2-Methyl-4-chloro-5-((2-(4-(2-methoxy-4-methylphenyl)piperazinyl-1)ethyl)amino)-3(2H)-pyridazinone], for which the Ki at alpha1 adrenoceptors is 31.4 nM; on 5-HT-1A receptors it was 478 nM.
For `COc1ccc(C)cc1N1CCN(CCNc2ccnn(C)c2=O)CC1` [2-Methyl-4-((2-(4-(2-methoxy-5-methylphenyl)piperazinyl-1)ethyl)amino)-3(2H)-pyridazinone], in that order: 73.6 nM and 186 nM.
As for `Cn1ncc(Cl)c(NCCN2CCN(c3ccccc3)CC2)c1=O` [2-Methyl-5-chloro-4-((2-(4-phenylpiperazinyl-1)ethyl)amino)-3(2H)-pyridazinone], the Ki at alpha1 adrenoceptors turned out to be 86.7 nM; at 5-HT-1A receptors, 519 nM.
Consider `Cn1ncc(Cl)c(NCCN2CCN(c3cccc(C(F)(F)F)c3)CC2)c1=O` [2-Methyl-5-chloro-4-((2-(4-(3-trifluoromethylphenyl)piperazinyl-1)ethyl)amino-3(2H)-pyridazinone], for which the Ki was 47.3 nM on alpha1 adrenoceptors and 8.31 nM on 5-HT-1A receptors.
For `Cn1nccc(NCCN2CCN(c3ccccc3O)CC2)c1=O` [2-Methyl-4-((2-(4-(2-hydroxyphenyl)piperazinyl-1)ethyl)amino)-3(2H)-pyridazinone], in that order: 65.5 nM and 36.5 nM.
The matching figures for `CCN(CCN1CCN(c2ccccc2OC)CC1)c1cnn(C)c(=O)c1` [2-Methyl-5-(ethyl-(2-(4-(2-methoxyphenyl)piperazinyl-1)ethyl)amino)-3(2H)-pyridazinone]: 20.6 nM and 24.2 nM.
With `COc1ccccc1N1CCN(CCNc2c(OC)cnn(C)c2=O)CC1` [5-Methoxy-2-methyl-4-((2-(4-(2-methoxyphenyl)-1-piperazinyl)ethyl)amino)-3(2H)-pyridazinone], the Ki on alpha1 adrenoceptors was 7.83 nM; at 5-HT-1A receptors it was 90.8 nM.
The matching figures for `COc1ccc(C)cc1N1CCN(CCNc2c(Cl)cnn(C)c2=O)CC1` [2-Methyl-5-chloro-4-((2-(4-(2-methoxy-5-methylphenyl)piperazinyl-1)ethyl)amino)-3(2H)-pyridazinone]: 6.01 nM and 85.1 nM.
The matching figures for `COc1ccccc1N1CCN(CCNc2cnn(-c3ccccc3)c(=O)c2Cl)CC1` [2-Phenyl-4-chloro-5-((2-(4-(2-methoxyphenyl)piperazinyl-1)ethyl)amino)-3(2H)-pyridazinone]: 4.48 nM and 75.8 nM.
For `Cn1ncc(NCCN2CCN(c3cccc(C(F)(F)F)c3)CC2)c(Cl)c1=O` [2-Methyl-4-chloro-5-((2-(4-(3-trifluoromethylphenyl)piperazinyl-1)ethyl)amino-3(2H)-pyridazinone], the values for the inhibitory constant (Ki) at alpha1 adrenoceptors and at 5-HT-1A receptors were 94.2 nM and 28.5 nM, respectively.
For `COc1ccccc1N1CCN(CCNc2cnn(C)c(=O)c2)CC1` [2-Methyl-5-((2-(4-(2-methoxyphenyl)-1-piperazinyl)ethyl)amino)-3(2H)-pyridazinone], in that order: 190 nM and 43.6 nM.
Consider `COc1ccccc1N1CCN(CCCNc2cnn(C)c(=O)c2Cl)CC1` [2-Methyl-4-chloro-5-((3-(4-(2-methoxyphenyl)-1-piperazinyl)propyl)amino)-3(2H)-pyridazinone], for which the Ki on alpha1 adrenoceptors is 32.2 nM; on 5-HT-1A receptors, 50.7 nM.
In the case of `COc1ccccc1N1CCN(CCNc2cnn(CCO)c(=O)c2Cl)CC1` [2-Hydroxyethl-4-chloro-5-((2-(4-(2-methoxyphenyl)piperazinyl-1-)ethyl)amino-3(2H)-pyridazinone], the Ki came out at 10.8 nM at alpha1 adrenoceptors and 86.3 nM at 5-HT-1A receptors.
The matching figures for `COc1ccccc1N1CCN(CCNc2cnn(CCO)c(=O)c2)CC1` [2-Hydroxyethyl-5-((2-(4-(2-methoxyphenyl)piperazinyl-1)ethyl)amino)-3(2H)-pyridazinone]: 128 nM and 55.8 nM.
For `Cn1nccc(NCCN2CCN(c3cccc(C(F)(F)F)c3)CC2)c1=O` [2-Methyl-4-((2-(4-(3-trifluoromethylphenyl)piperazinyl-1)ethyl)amino-3(2H)-pyridazinone], the Ki at alpha1 adrenoceptors was 175 nM; at 5-HT-1A receptors, 4.56 nM.
As to `Cn1ncc(NCCN2CCN(c3ccccc3F)CC2)c(Cl)c1=O` [2-Methyl-4-chloro-5-((2-(4-(2-fluorophenyl)piperazinyl-1)ethyl)amino)-3(2H)-pyridazinone], the Ki on alpha1 adrenoceptors stood at 28.2 nM; at 5-HT-1A receptors, 398 nM.
In the case of `COc1ccccc1N1CCN(CCNc2cnn(C)c(=O)c2Cl)CC1` [2-methyl-4-chloro-5-((2-(4-(2-methoxyphenyl)-1-piperazinyl)ethyl)amino)-3(2H)-pyridazinone], the results for the Ki at alpha1 adrenoceptors and on 5-HT-1A receptors were 7.57 nM and 63.2 nM, respectively.
For `COc1ccccc1N1CCN(CCCNc2cc(Cl)nn(C)c2=O)CC1` [2-Methyl-6-chloro-4-((3-(4-(2-methoxyphenyl)-1-piperazinyl)propyl)amino)-3(2H)-pyridazinone], in that order: 11 nM and 46.6 nM.
On to `COc1ccccc1N1CCN(CCNc2cnn(C(C)(C)C)c(=O)c2Cl)CC1` [2-t-Butyl-4-chloro-5-((2-(4-(2-methoxyphenyl)piperazinyl-1)ethyl)amino)-3(2H)-pyridazinone], for which the Ki at alpha1 adrenoceptors turned out to be 12.8 nM; at 5-HT-1A receptors it was 39.4 nM.
On to `COc1ccccc1N1CCN(CCNc2ccnn(CCO)c2=O)CC1` [2-Hydroxyethyl-4-((2-(4-(2-methoxyphenyl)piperazinyl-1)ethyl)amino)-3(2H)-pyridazinone], for which the Ki on alpha1 adrenoceptors worked out at 17.7 nM; on 5-HT-1A receptors, 18.2 nM.
For `COc1ccccc1N1CCN(CCNc2cnn(C(C)(C)C)c(=O)c2)CC1` [2-t-Butyl-5-((2-(4-(2-methoxyphenyl)piperazinyl-1)ethyl)amino)-3(2H)-pyridazinone], in that order: 6.03 nM and 65.8 nM.
Regarding `COc1ccccc1N1CCN(CCNc2c(Cl)cnn(C)c2=O)CC1` [2-Methyl-5-chloro-4-((2-(4-(2-methoxyphenyl)-1-piperazinyl)ethyl)amino)-3(2H)-pyridazinone], the Ki is 1.5 nM on alpha1 adrenoceptors and 16.6 nM at 5-HT-1A receptors.
